According to patent US9849146B2, “Inhibition of nonsense mediated mRNA decay by drugs that prevent hypusination of eukaryotic initiation factor 5A” (RUTGERS, THE STATE UNIVERSITY OF NEW JERSEY, priority 2009, dated 2017):
Entries after “also recorded” stand apart in the source; their conditions may differ.

Experiments:
[1] = target: T1, DOHH (Homo sapiens, UniProt Q9BU89); assay: Immunoblot of eIF5A modification (maturation) in 293T cells transfected with FLAG-tagged eIF5A; format: cell-based; settings: for concentration range reducing the appearance of mature eIF5A: FLAG-eIF5A, NIH-353 immunoblot
T1 construct: endogenous in cells; host or cells: 293T cells
T1 sequence (Q9BU89 1-302): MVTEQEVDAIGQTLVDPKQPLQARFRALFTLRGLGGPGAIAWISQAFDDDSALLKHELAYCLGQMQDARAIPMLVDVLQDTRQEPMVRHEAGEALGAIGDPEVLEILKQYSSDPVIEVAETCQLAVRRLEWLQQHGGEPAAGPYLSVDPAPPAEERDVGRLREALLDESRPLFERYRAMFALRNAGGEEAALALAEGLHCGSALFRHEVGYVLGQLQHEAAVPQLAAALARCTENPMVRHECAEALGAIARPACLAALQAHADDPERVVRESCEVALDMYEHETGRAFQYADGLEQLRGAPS
Description: To examine the effect of compounds on the synthesis of modified eIF5A, 293T cells transfected with a FLAG-tagged eIF5A expression vector were simultaneously treated with ciclopirox (“CPX”) or deferiprone (“DEF”).
FLAG-eIF5A was monitored using NIH-353 and anti-FLAG antibodies (FIGS. 2A and 2B). FIG. 2A illustrates inhibition of eIF5A modification in 293T cells. Cells transfected with FLAG-tagged eIF5A were untreated or treated with increasing concentrations of CPX as indicated, or with agent P2. FIG. 2B illustrates cells transfected with FLAG-tagged eIF5A that were untreated or treated with increasing concentrations of DEF as indicated, or with DFOX. At 24 hours post-transfection, whole cell extract (“WCE”) was analyzed by immunoblotting with the NIH-353 anti-eIF5A antibody (upper panel) and anti-actin antibody (lower panel). The […] antibody reacts preferentially with post-translationally modified eIF5A. CPX reduced the appearance of mature eIF5A over the 3-30 μM concentration range, while DEF was effective at 200-400 μM. […] In addition to the CPX homolog Agent P2, deferoxamine (“DFOX”; Desferal™) was used as a control compound. DFOX, a metal-binding hydroxamate like CPX and Agent P2 (FIG. 3), is a globally used medicinal iron chelator.
FIG. 2C illustrates cells transfected with FLAG-tagged eIF5A that were treated with CPX (30 μM), P2 (30 μM), DEF (250 μM), DFOX (10 μM), or no compound (-). At 24 hours post transfection, WCE was analyzed by immunoblotting with the NIH-353 anti-eIF5A antibody (upper panel) and anti-FLAG antibody (lower panel). The control culture was transfected with empty vector and no compound was added.

[2] = target: T2, eIF5A:DOHH complex (Homo sapiens, UniProt Q9BU89); assay: Co-immunoprecipitation of the eIF5A:DOHH complex from transfected 293T cells; format: cell-based; settings: CPX 30 μM, DEF 250 μM; for interaction between endogenous eIF5A and tagged DOHH: FLAG-DOHH transfected 293T cells; for association of endogenous DOHH with FLAG-eIF5A (co-immunoprecipitation): GC7 10 μM, P2 30 μM, DFOX 10 μM, 24 hours post-transfection
T2 construct: Endogenous DOHH co-immunoprecipitated with FLAG-eIF5A; expressed in transfected cells; host or cells: 293T cells (FLAG-eIF5A transfected; DOHH endogenous)
T2 sequence (Q9BU89 1-302): T1 sequence (Q9BU89 1-302)
Method: Unmodified eIF5A (lysine-50) immunoprecipitates with DHS, and deoxyhypusyl-eIF5A interacts with DOHH in vitro. The deoxyhypusyl-eIF5A:DOHH complex formed in vivo can be detected by immunoprecipitation from cell extracts. Taking advantage of this finding, the effects of the compounds on the enzyme-substrate interaction was tested, the results of which are illustrated in FIG. 2D. FLAG-eIF5A was expressed in 293T cells. 293T cells transfected with FLAG-eIF5A were untreated (-) or treated with GC7 (10 μM) or CPX (30 μM), P2 (30 μM), DEF (250 μM), or DFOX (10 μM). WCE prepared at 24 hours post-transfection was immunoprecipitated with anti-FLAG antibody. Complexes that immunoprecipitated with anti-FLAG antibody were immunoblotted and probed with antibodies against DOHH. […] As a further control, the DHS inhibitor GC7 was included in this assay. […] As expected, none of the compounds affected the immunoprecipitation of FLAG-eIF5A (FIG. 2D, middle panel; note that the band marked with an asterisk (*) is background due to IgG light chain) or the expression of endogenous eIF5A (FIG. 2D, bottom panel).
(§1) FIG. 2E illustrates 293T cells transfected with FLAG-DHS, FLAG-DOHH or empty vector (control) were treated with GC7, CPX, or DEF, or no drug (-) at the same concentration as in FIG. 2D. Immunoprecipitates obtained with anti-FLAG antibody were immunoblotted and probed with anti-eIF5A antibody (BD). WCE equivalent to 5% of the input was immunoblotted as a further control. Reciprocally, the interaction between endogenous eIF5A and tagged DOHH was inhibited by CPX and DEF (FIG. 2E, right). Similarly, the interaction of endogenous eIF5A with tagged DHS was inhibited by GC7 (FIG. 2E, left), but was resistant to CPX and DEF (not shown).

[3] = target: T3, eIF5A:DHS complexes (Homo sapiens, UniProt P49366); assay: Co-immunoprecipitation of endogenous eIF5A with FLAG-DHS from transfected 293T cells; format: cell-based; settings: FLAG-DHS transfected 293T cells; GC7 10 μM, CPX 30 μM, DEF 250 μM
T3 construct: expressed in transfected cells; host or cells: 293T cells (FLAG-DHS transfected; eIF5A endogenous)
T3 sequence (P49366 1-369): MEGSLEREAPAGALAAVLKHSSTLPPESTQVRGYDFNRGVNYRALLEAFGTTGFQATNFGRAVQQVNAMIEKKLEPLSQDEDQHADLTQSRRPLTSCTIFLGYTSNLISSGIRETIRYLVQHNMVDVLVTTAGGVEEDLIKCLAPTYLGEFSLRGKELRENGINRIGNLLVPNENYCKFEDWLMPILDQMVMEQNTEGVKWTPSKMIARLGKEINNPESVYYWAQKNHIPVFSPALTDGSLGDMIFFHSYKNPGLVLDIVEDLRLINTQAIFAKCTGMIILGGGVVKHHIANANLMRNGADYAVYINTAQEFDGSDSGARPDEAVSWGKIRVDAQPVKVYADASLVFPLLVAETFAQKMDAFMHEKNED
Method: as §1

[4] = test system: NMD; assay: NMD luciferase reporter assay with vectors containing NMD signals associated with β039-thalassemia; format: cell-based; settings: for submaximal effect of the NMD inhibitor when combined with nonsense suppressor G418: 15 μM CPX, 125 μM DEF, 200 μM HYD, G418 at 800 μM; for drug concentrations at which inhibition of NMD is seen: dose-dependent; for NMD in the thalassemia model system: ratio of Renilla luciferase from NMD-sensitive reporter to matched NMD-insensitive control
Method: The experiment of FIG. 5 used RNA silencing with small interfering RNAs (siRNAs) to deplete eIF5A itself, or either of the modifying enzymes required for hypusine formation. […] Data are shown as ratio of luciferase activities.
These experiments were carried out in the well-authenticated assay system using vectors containing NMD signals associated with β^039-thalassemia (Woeller C F, Gaspari M, Isken O, Maquat L.: EMBO Rep. 2008 May; 9(5):446-51).

[5] = cited from earlier work
[6] = 293T cells, 24 hours post-transfection

| Compound | concentration range reducing the appearance of mature eIF5A [1, 6] [µM] | interaction between endogenous eIF5A and tagged DOHH [2] | association of endogenous DOHH with FLAG-eIF5A (co-immunoprecipitation) [2] | interaction of endogenous eIF5A with tagged DHS [3] | submaximal effect of the NMD inhibitor when combined with nonsense suppressor G418 [4] | drug concentrations at which inhibition of NMD is seen ([4]; thalassemia model system) | NMD in the thalassemia model system [4] | also measured |
| --- | --- | --- | --- | --- | --- | --- | --- | --- |
| Cc1c(O)c(=O)ccn1C [DEF, deferiprone] | 200 to 400 | inhibited | largely prevented; also recorded: destabilized | resistant | distinctly enhanced | 125/250 | inhibited | NMD inhibition by single compound ([4]; DEF at 125 μM, HYD at 200 μM, each alone): ineffective individually; concentration in serum ([5]; after oral medication): ≥ 250 µM |
| NCCCCCCCN=C(N)N [GC7] |  |  | No DOHH was associated with FLAG-eIF5A | inhibited; also recorded: blocked formation |  |  |  |  |
| Cc1ccn(O)c(=O)c1 [P2] |  |  | neither P2 or DFOX prevented; also recorded: Neither DFOX nor P2 had any effect |  |  |  |  | activity in cell-based assays [1]: little or no activity; effect on the appearance of mature FLAG-eIF5A ([1]; 293T cells, 24 hours post-transfection, control compounds): little or no effect |
| Cc1cc(C2CCCCC2)n(O)c(=O)c1 [CPX, ciclopirox] | 3 to 30 | inhibited | largely prevented; also recorded: destabilized | resistant | distinctly enhanced | 15/30 | inhibited | levels in skin ([5]; topical preparations containing up to 57.5 mM): > 30 µM |
| CN[C@@H]1[C@@H](O)[C@@H](O[C@@H]2[C@@H](O)[C@H](O[C@H]3O[C@H]([C@@H](C)O)[C@@H](O)[C@H](O)[C@H]3N)[C@@H](N)C[C@H]2N)OC[C@]1(C)O [G418] |  |  |  |  |  |  |  | effect on expression (nonsense suppressor, for comparison) ([4]; thalassemia model system): expression-enhancing effect |
| NNc1nncc2ccccc12 [HYD, hydralazine] |  |  |  |  |  | 200/400 |  |  |
